Laboratory results: ChEMBL document CHEMBL1123114, “Structure-activity relationships of arylimidazopyridine cardiotonics: discovery and inotropic activity of 2-[2-methoxy-4-(methylsulfinyl)phenyl]-1H-imidazo[4,5-c]pyridine” (1985)

Columns and labels:
[1] = species on record: Felis catus; test: Compound tested for contractility in isolated cat papillary muscle at 10 e-4 M.; assay type: functional
[2] = species on record: Felis catus; test: Compound tested for contractility in isolated cat papillary muscle at 10 e-5 M.; assay type: functional
[3] = species on record: Felis catus; test: Response ratio = (percent increase to drug)/(percent increase to 10 E-4 M isoproterenol); assay type: functional
[4] = species on record: Felis catus; test: Response ratio = (percent increase to drug)/(percent increase to 10 E-5 M isoproterenol); assay type: functional
[5] = test system: Canis familiaris; test: Compound tested for contractility in anesthetized dog when administered intravenously.; assay type: functional; conditions: Canis lupus familiaris, iv
[6] = test system: Canis familiaris; test: Percent change in heart rate in anesthetized dog; assay type: functional, Canis lupus familiaris; note: test concentration or dose not given here
[7] = test system: Canis familiaris; test: Percent change in mean arterial blood pressure in anesthetized dog; assay type: functional, Canis lupus familiaris; note: test concentration or dose not given here

| SMILES | Control [1] | Control [2] | Response ratio [3] | Response ratio [4] | ED50 [5] | Change [6] | Change [7] |
| --- | --- | --- | --- | --- | --- | --- | --- |
| COc1cccc(-c2nc3cc[nH]cc-3n2)c1OC | 90% | 102% | -0.14 | 0.03 | – | – | – |
| COc1cccc(-c2nc3cc[nH]cc-3n2)c1 | 214% | 115% | 1.58 | 0.21 | – | – | – |
| N#Cc1ccc(-c2nc3ccncc3[nH]2)cc1 | 164% | 112% | 0.89 | 0.16 | – | – | – |
| COc1cc(S(C)(=O)=O)ccc1-c1nc2ccc[nH]c-2n1 | 129% | 120% | 0.4 | 0.28 | 0.4 mg/kg | 10% | -20% |
| COc1cc(OC)c(-c2nc3cc[nH]cc-3n2)c(OC)c1 | 137% | 103% | 0.51 | 0.04 | – | – | – |
| Cc1cccc(-c2nc3ccc[nH]c-3n2)c1 | – | – | – | – | 2.8 mg/kg | 18% | -27% |
| Clc1ccc(-c2nc3cc[nH]cc-3n2)c(Cl)c1 | 171% | 116% | 0.99 | 0.22 | 0.7 mg/kg | 17% | -22% |
| COc1cc(F)ccc1-c1nc2cc[nH]cc-2n1 | 142% | 120% | 0.58 | 0.28 | – | – | – |
| COc1ccc(-c2nc3cc[nH]cc-3n2)c([S+](C)[O-])c1 (stereo unspecified) | 116% | 107% | 0.22 | 0.1 | – | – | – |
| COc1cc(OCc2ccccc2)ccc1-c1nc2cc[nH]cc-2n1 | 105% | 112% | 0.07 | 0.17 | – | – | – |
| COc1ccc(-c2nc3cc[nH]cc-3n2)c(OCC[S+]([O-])c2ccccc2)c1 (stereo unspecified) | 96% | 107% | -0.05 | 0.1 | – | – | – |
| COc1ccc(OC)c(-c2nc3cc[nH]cc-3n2)c1 | 169% | 110% | 0.96 | 0.14 | – | – | – |
| COc1cc(OS(C)(=O)=O)ccc1-c1nc2cc[nH]cc-2n1 | 326% | 240% | 3.13 | 1.94 | 0.006 mg/kg | 17% | -25% |
| COc1ccc(-c2nc3c[nH]cnc-3n2)c(OC)c1 | 215% | 117% | 1.59 | 0.24 | 0.3 mg/kg | 7% | -15% |
| CCCCCOc1cc(OC)ccc1-c1nc2cc[nH]cc-2n1 | 81% | 105% | -0.26 | 0.07 | – | – | – |
| COc1c(C)cc(-c2nc3cc[nH]cc-3n2)cc1C | 213% | 121% | 1.57 | 0.29 | – | – | – |
| COc1cc(C(F)(F)F)ccc1-c1nc2cc[nH]cc-2n1 | 135% | 139% | 0.49 | 0.54 | 0.009 mg/kg | 10% | -12% |
| COc1ccc(-c2nc3cc[nH]cc-3n2)cc1 | 205% | 104% | 1.46 | 0.07 | 1.7 mg/kg | 17% | -14% |
| COc1cc(-c2nc3cc[nH]cc-3n2)ccc1[S+](C)[O-] (stereo unspecified) | 154% | 111% | 0.75 | 0.15 | – | – | – |
| COc1cc(Br)ccc1-c1nc2cc[nH]cc-2n1 | 175% | 134% | 1.04 | 0.47 | – | – | – |
| CCCCOc1cc(OC)ccc1-c1nc2cc[nH]cc-2n1 | 140% | 100% | 0.55 | 0 | – | – | – |
| COc1cc(C)ccc1-c1nc2cc[nH]cc-2n1 | 202% | 117% | 1.42 | 0.24 | 0.28 mg/kg | 8% | -7% |
| CCOc1cc(SC)ccc1-c1nc2cc[nH]cc-2n1 | 149% | 122% | 0.68 | 0.3 | – | – | – |
| c1ccc(-c2nc3cc[nH]cc-3n2)cc1 | 242% | 106% | 1.97 | 0.08 | 2.5 mg/kg | 13% | -15% |
| COc1ccc(-c2nc3cc[nH]cc-3n2)c(C)c1 | 145% | 119% | 0.63 | 0.26 | – | – | – |
| COc1ccc(-c2nc3cc[nH]cc-3n2)c(OCCCSC)c1 | 129% | 118% | 0.41 | 0.25 | – | – | – |
| Cc1ccc(-c2nc3cc[nH]cc-3n2)cc1 | 196% | 97% | 0.96 | -0.04 | – | – | – |

| SMILES | Control [1] | Control [2] | Response ratio [3] | Response ratio [4] | ED50 [5] | Change [6] | Change [7] |
| --- | --- | --- | --- | --- | --- | --- | --- |
| Fc1ccc(-c2nc3cc[nH]cc-3n2)cc1 | 163% | 105% | 0.87 | 0.06 | – | – | – |
| CCOc1cc(OC)ccc1-c1nc2cc[nH]cc-2n1 | 130% | 108% | 0.41 | 0.11 | – | – | – |
| COc1cccc(OC)c1-c1nc2cc[nH]cc-2n1 | 184% | 78% | 1.16 | -0.31 | – | – | – |
| COc1cc(N(C)C)ccc1-c1nc2cc[nH]cc-2n1 | 165% | 102% | 0.9 | 0.03 | – | – | – |
| COc1ccc(-c2nc3cc[nH]cc-3n2)c(OCCSc2ccccc2)c1 | 109% | 103% | 0.12 | 0.04 | – | – | – |
| CCSc1ccc(-c2nc3cc[nH]cc-3n2)c(OC)c1 | 196% | 136% | 1.33 | 0.5 | – | – | – |
| CSc1ccc(-c2nc3cc[nH]cc-3n2)c(SC)c1 | 161% | 113% | 0.84 | 0.18 | – | – | – |
| CS(=O)(=O)c1ccc(-c2nc3ccc[nH]c-3n2)cc1 | – | – | – | – | 18 mg/kg | 8% | -2% |
| c1ccc(-c2nc3ccccc3[nH]2)cc1 | 134% | 105% | 0.47 | 0.07 | – | – | – |
| CC[S+]([O-])c1ccc(-c2nc3cc[nH]cc-3n2)c(OC)c1 (stereo unspecified) | 170% | 136% | 1 | 0.5 | – | – | – |
| COc1ccc(-c2nc3cc[nH]cc-3n2)c(SC)c1 | 204% | 114% | 1.44 | 0.19 | – | – | – |
| CSc1ccc(-c2nc3ccc[nH]c-3n2)cc1 | – | – | – | – | 1.9 mg/kg | 27% | -7% |
| COc1ccccc1-c1nc2cc[nH]cc-2n1 | 200% | 120% | 1.38 | 0.28 | – | – | – |
| COc1cc(SC)ccc1-c1nc2c[nH]cnc-2n1 | 131% | 109% | 0.43 | 0.12 | – | – | – |
| COc1cc(OC)c(-c2nc3cc[nH]cc-3n2)cc1OC | 129% | 108% | 0.4 | 0.12 | – | – | – |
| Fc1ccccc1-c1nc2cc[nH]cc-2n1 | 145% | 107% | 0.63 | 0.1 | – | – | – |
| COc1ccc(-c2nc3ccc[nH]c-3n2)cc1OC | 116.5% | 103% | 0.22 | 0.04 | – | – | – |
| Fc1cccc(-c2nc3cc[nH]cc-3n2)c1 | 157% | 112% | 0.79 | 0.17 | – | – | – |
| c1ccc(Sc2ccc(-c3nc4cc[nH]cc-4n3)cc2)cc1 | 124% | 122% | 0.33 | 0.31 | – | – | – |
| Clc1cc(Cl)cc(-c2nc3cc[nH]cc-3n2)c1 | 146% | 115% | 0.64 | 0.21 | – | – | – |
| CCCOc1cc(SC)ccc1-c1nc2cc[nH]cc-2n1 | – | – | – | – | 1.2 mg/kg | -3% | -62% |
| COc1cc(I)ccc1-c1nc2cc[nH]cc-2n1 | 159% | 139% | 0.82 | 0.54 | – | – | – |
| COc1cc(OC)cc(-c2nc3cc[nH]cc-3n2)c1 | 179% | 115% | 1.1 | 0.21 | – | – | – |
| COCCOc1cc(OC)ccc1-c1nc2cc[nH]cc-2n1 | 116% | 109% | 0.22 | 0.12 | – | – | – |
| COCCCOc1cc(OC)ccc1-c1nc2cc[nH]cc-2n1 | 147% | 99% | 0.65 | -0.01 | – | – | – |
| COc1cc(-c2nc3cc[nH]cc-3n2)cc(OC)c1OC | 151% | 109% | 0.71 | 0.12 | – | – | – |
| CCCSc1ccc(-c2nc3cc[nH]cc-3n2)c(OC)c1 | 139% | 125% | 0.54 | 0.35 | – | – | – |
